Entries after “also recorded” stand apart in the source; their conditions may differ.
How the values were obtained:
[1] = target: T1, PDK-Akt activation sequence (recombinant PDK-1 and Akt-1) (Homo sapiens, UniProt O15530); assay: In vitro drug screen of PS48-family compounds: PDK-1/Akt-1 activation sequence inhibited by Aβ42 ADDL oligomers (western readout); format: biochemical; details: for potency relative to PS48: based on Table 1 data; for GSK peptide and Akt T308 phosphorylations, Westerns of in vitro reaction mixture (FIG. 6A): compared to PS48; for fraction of control activity: compound 10 μM
T1 construct: purchased Amsbio
T1 sequence (O15530 1-556): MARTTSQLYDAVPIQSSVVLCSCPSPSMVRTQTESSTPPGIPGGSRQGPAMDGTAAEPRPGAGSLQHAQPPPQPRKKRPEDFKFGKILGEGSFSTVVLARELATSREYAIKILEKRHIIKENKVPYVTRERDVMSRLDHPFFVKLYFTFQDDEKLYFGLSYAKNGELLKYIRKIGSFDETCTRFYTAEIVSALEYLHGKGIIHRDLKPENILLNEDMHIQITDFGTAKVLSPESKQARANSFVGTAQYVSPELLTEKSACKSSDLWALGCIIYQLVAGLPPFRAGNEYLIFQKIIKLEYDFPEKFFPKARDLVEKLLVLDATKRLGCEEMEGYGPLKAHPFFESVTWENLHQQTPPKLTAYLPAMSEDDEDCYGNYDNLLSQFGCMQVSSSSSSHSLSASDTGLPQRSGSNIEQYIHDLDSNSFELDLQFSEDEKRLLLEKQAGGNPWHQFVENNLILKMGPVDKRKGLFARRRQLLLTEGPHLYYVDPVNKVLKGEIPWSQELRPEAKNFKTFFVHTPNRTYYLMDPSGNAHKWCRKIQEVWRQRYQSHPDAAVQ
Method: Incubation proceeded for 15 min. GSK-tide (Cell Signaling) was then added and the reaction allowed to continue for 20 min more before termination in sample buffer and fractionation on SDS gel. […] The in vitro results were validated using a cell culture-based assay, as above. […] Compound was added for 12 hrs. The cells were stimulated with insulin before harvest.
Where quantified, experiments were carried out in triplicate unless otherwise stated. Mean, standard errors and significance levels using Student's t-test were computed in Excel or Prism. […] Western signal intensities were all quantified by densitometry. […] Therefore, where both endpoints were evaluated, normalized values were both included in the quantification as indicated.
Drug screening experiments were performed using a focused library of novel compounds that were synthesized using PS48 as the starting scaffold. Two generations were created based on structure-activity relations (SAR) in an attempt to optimize performance.

[2] = tested on: Akt phosphorylation in Aβ42-expressing SH-SY5Y cells; assay: Akt activation in Aβ42-expressing cells (adenovirus/doxycycline, insulin-stimulated); format: cell-based; details: SH-SY5Y; for Phospho-Akt levels (T308 and S473 pooled) in cell-based model of Aβ toxicity, verification of analogs: compound 1 μM, insulin 40 nM last 20 minutes
Method: Adv TetOn and TRE-Aβ42 viruses were described previously (Magrane et al., 2005). […] Insulin (10 or 40 nM) was added in the last 20-30 min before harvest. […] Cell extracts were prepared in lysis buffer [20 mM Tris-HCl (pH 7.5), 150 mM NaCl, 1 mM EDTA, 1 mM Na3VO4, 1% NP-40, 10% Glycerol, 1 mM Na4P2O7, 1 μg/ml Leupeptin, 1 μg/ml Pepstatin A, 1 μg/ml Aprotinin, 0.1 mM phenylmethylsulfonyl fluoride, and protease inhibitor cocktail (Roche)] and were stored at −80° C. until use.
Whole-cell extracts were used directly for western blot analysis (20˜30 μg). Extracts from cultured cells prepared in lysis buffer, were diluted into Laemmli sample buffer, heated (95° C., 10 min), cleared by centrifugation, separated on SDS-PAGE and transferred to PVDF membrane (Immobilon-P; Millipore). Membranes were blocked in TBS containing 0.3% Tween-20 and 5% (wt/vol) non-fat dry milk. After incubation with primary antibodies (18 hr at 4° C. in buffer containing 5% bovine serum albumin (BSA) and 0.05% NaN3), blots were washed and incubated in horseradish peroxidase (HRP)-conjugated secondary antibodies (1:2000 dilution; Cell Signaling). Signals were detected using ECL reagents and quantified using a Kodak Image Station 4000R.
[…]. […] […]. […] […].

SH-SY5Y cells = assay: Cell viability, MTT assay, Aβ42-expressing SH-SY5Y cells; details: pretreatment before doxycycline; PS48 10 μM or insulin 100 nM; harvested at 48 hrs
Method: FIG. 2A. Cell viability as measured by MTT assay.
SH-SY5Y cells were washed twice in warm Dulbecco's phosphate-buffered saline (DPBS) and incubated in 1 ml DMEM containing 0.5 mg (3-[4,5-dimethylthiazol-2-yl]-2,5-diphenyltetrazolium bromide) (MTT or WST; Molecular Probes, Eugene, OR) for 2-3 h at 37° C. and 5% CO2. The medium was aspirated and the cells were washed twice with pre-warmed DPBS. The formazan salts were dissolved in 1 ml pure ethanol before use. Cells were homogenized by repetitive pipetting and centrifuged for 5 min at 4500 rpm, and the supernatant collected. Absorbance was read against an ethanol blank at 590 nm.

[3] = tested on: LTP in rat prefrontal cortical slices; assay: Long term potentiation (LTP) in acute prefrontal cortical slices perfused with Aβ42 oligomers; format: cell-based; details: Aβ42 ADDLs 0.5 μM; PS48 10 μM, at the 1-hour mark after Aβ42 application
Method: FIG. 3A. […] LTP was measured as % baseline excitatory postsynaptic potential (EPSP) amplitudes. […] Washout restored LTP (4).
Minor modifications were made to previous published procedures (Marshall et al., 2017; Molina-Luna et al., 2009). Deeply anesthetized rats (pentobarbital, 50 mg/kg) were decapitated, their brains quickly removed and immersed in cold (5-7° C.), oxygenated (95% O2/5% CO2) artificial cerebrospinal fluid (ACSF) containing: 126 mM NaCl, 3 mM KCl, 1.25 mM NaH2PO4, 1 mM MgSO4, 2 mM CaCl2, 26 mM NaHCO3, 10 mM dextrose. […] Control treatment was DMSO in ACSF (artificial cerebrospinal fluid, 20 μM bicuculline). Extracellular postsynaptic field potentials were recorded using an AxoClamp2B amplifier (Axon instruments) and EX1 differential amplifier (Dagan), and digitized at 10 kHz. Data was acquired using Igor Pro (Wave Metrics) and Neuromatic (neuromatic.thinkrandom.com). The stimulus intensity eliciting 50% of the maximum amplitude (˜32 μA) was used for all measurements before and after LTP induction. Baseline amplitudes were recorded for 20-30 minutes using single field stimuli applied every 30 sec to layer IV-V using concentric bipolar electrodes. Following a stable baseline period, LTP was induced by two sets of high-frequency stimulation (HFS) at 100 Hz, 60 μA (twice stimulus intensity), for 1 sec, 20 sec apart. Extracellular postsynaptic field potentials were measured from layer II-III using glass micropipettes filled with 0.9% NaCl. The amplitude rather than the slope of evoked FPs was used as a measure of the population excitatory synaptic response because in the neocortex the initial slope was contaminated by antidromic stimulation. LTP values were expressed as percentage of mean baseline EPSP±SEM. Paired two-tailed t-tests were used for statistical analysis.
LTP was measured as % baseline excitatory postsynaptic potential (EPSP) amplitudes. […] Washout restored LTP.

N2a neural cultures = assay: WST assay toxicity in N2a neural cultures; format: cell-based; details: result not shown
From the text: . […]. Examples of in vitro assay performance are shown in FIG. 6A and FIG. 6B for compound 508-1-25 (generation 1) and compound 508-1-68 (generation 2). […] The new “hit” compounds also had no direct or indirect effects on potential downstream off-targets such as mTOR (protein levels and phosphorylation status, results not shown). […]

[4] = first generation PS48 analogs, Aβ42 ADDL 10 μM, Aβ 42 alone = 0.62 (.16), control normalized to 1.00

Compound | potency relative to PS48 [1] | GSK peptide and Akt T308 phosphorylations, Westerns of in vitro reaction mixture (FIG. 6A) [1] | fraction of control activity [1, 4] | Phospho-Akt levels (T308 and S473 pooled) in cell-based model of Aβ toxicity, verification of analogs [2] | other results
O=C(/C=C(/CCc1ccc(Cl)cc1)c1ccccc1)NCCO [508-1-7] | increase in potency over PS48 | restored activation as well as or better than PS48 | 0.97 (.10) |  | 
insulin: Human insulin, recombinant |  |  |  |  | Akt activation (pT308) in β-amyloid-expressing cells ([2]; PS48 1 μM or insulin 100 nM added 2 hrs before doxycycline, insulin 40 nM 20 min prior to harvest): restored basal Akt activation levels; cell viability (MTT) of amyloid-bearing cells (SH-SY5Y cells): reverted cells to basal condition or better
O=C(O)/C=C(\CCc1ccc(Cl)cc1)c1ccccc1 [PS47, (E)-5-(4-chlorophenyl)-3-phenylpent-2-enoic acid] |  |  |  |  | LTP (% baseline EPSP amplitude) inhibited by Aβ42 oligomers [3]: no effect
O=C(O)CNC(=O)/C=C(/CCc1ccc(Cl)cc1)c1ccccc1 [508-1-25] | increase in potency over PS48 | restored activation as well as or better than PS48 | 0.99 (.07) | correcting the inhibition of Akt phosphorylation | Phospho-Akt levels (T308 and S473 pooled) in cell-based model of Aβ toxicity, verification of analogs ([2]; listed as 501-1-25): active; LD50 (N2a neural cultures): 350 µM
COC(=O)CNC(=O)/C=C(\CCc1ccc(Cl)cc1)c1ccccc1 [508-1-68] | increase in potency over PS48 | restored activation as well as or better than PS48 |  | correcting the inhibition of Akt phosphorylation; also recorded: active | fraction of control activity ([1]; second generation PS48 analogs, Aβ 42 alone = 0.72 (.05)): 1.02 (.06)
O=C(O)c1cn(Cc2ccc(OC(F)(F)F)cc2)c2ccccc12 [508-1-31] | increase in potency over PS48 |  | 0.95 (.11) |  | 

Reference: patent US12653799B2, “Compositions and methods for treating Alzheimer's disease” (ELEANORE BENNETT CHARITABLE TRUST #2, priority 2021, dated 2026)
